Molecules are shown by their SMILES. Values after ≈ are worked out from the molar mass of the structure shown. Active and inactive are the calls of the source. The calls are words filed in the database; no cut-off is given here.

The source of these data is ChEMBL document CHEMBL3045223, “Synthesis, nematicidal and antimicrobial properties of Bis-[4-methoxy-3-[3-(4-fluorophenyl)-6-(4-methylphenyl)-2(aryl)-tetrahydro-2H-pyrazolo[3,4-d]thiazol-5-yl]phenyl]methanes” (2009).

Holding throughout (assay type): functional
The subject of assay [1] is Trichophyton mentagrophytes. Put plainly: Antifungal activity against Trichophyton mentagrophytes IFO 40996 assessed as growth inhibition at 37 degC for 48 hr. Conditions: IFO 40996, 48 h.
The subject of assay [2] is Trichophyton rubrum. The assay can be described thus: Antifungal activity against Trichophyton rubrum IFO 9185 assessed as growth inhibition at 37 degC for 48 hr. As to conditions: IFO 9185, 48 h.
Assay [3] concerns Aspergillus fumigatus. Put plainly: Antifungal activity against Aspergillus fumigatus HIC 6094 assessed as growth inhibition at 37 degC for 48 hr. Conditions: HIC 6094, 48 h.
Assay [4] deals with Candida albicans. The assay can be described thus: Antifungal activity against Candida albicans ATCC 10231 assessed as growth inhibition at 37 degC for 48 hr. As to conditions: ATCC 10231, 48 h.
Assay [5] relates to Trichophyton mentagrophytes. The assay can be described thus: Antifungal activity against Trichophyton mentagrophytes IFO 40996 assessed as growth inhibition at 300 ug/disc at 37 degC for 48 hr.
Assay [6] relates to Trichophyton rubrum. The assay can be described thus: Antifungal activity against Trichophyton rubrum IFO 9185 assessed as growth inhibition at 300 ug/disk at 37 degC for 48 hr. Conditions: IFO 9185, 48 h, read-out: IZ.
The subject of assay [7] is Aspergillus fumigatus. Put plainly: Antifungal activity against Aspergillus fumigatus HIC 6094 assessed as growth inhibition at 300 ug/disc at 37 degC for 48 hr.
For assay [8], the system named is Candida albicans. The assay can be described thus: Antifungal activity against Candida albicans ATCC 10231 assessed as growth inhibition at 300 ug/disk at 37 degC for 48 hr.
The subject of assay [9] is Chromobacterium violaceum. The assay can be described thus: Antibacterial activity against Chromobacterium violaceum MTCC 2656 assessed as growth arrest at 37 degC for 24 hr. As to conditions: MTCC 2656, 24 h.
Assay [10] concerns Klebsiella aerogenes. Put plainly: Antibacterial activity against Enterobacter aerogenes MTCC 39 assessed as growth arrest at 37 degC for 24 hr. Conditions: MTCC 39, 24 h.
For assay [11], the system named is Pseudomonas aeruginosa. The assay can be described thus: Antibacterial activity against Pseudomonas aeruginosa MTCC 741 assessed as growth arrest at 37 degC for 24 hr. As to conditions: MTCC 741, 24 h.
The subject of assay [12] is Staphylococcus aureus. Put plainly: Antibacterial activity against Staphylococcus aureus MTCC 96 assessed as growth arrest at 37 degC for 24 hr. Conditions: MTCC 96, 24 h.
Assay [13] deals with Lysinibacillus sphaericus. Put plainly: Antibacterial activity against Lysinibacillus sphaericus MTCC 11 assessed as growth arrest at 37 degC for 24 hr. As to conditions: MTCC 11, 24 h.
The test system of assay [14] is Bacillus subtilis. Put plainly: Antibacterial activity against Bacillus subtilis MTCC 441 assessed as growth arrest at 37 degC for 24 hr. As to conditions: MTCC 441, 24 h.
Assay [15] relates to Chromobacterium violaceum. The assay can be described thus: Antibacterial activity against Chromobacterium violaceum MTCC 2656 assessed as inhibition zones at 300 ug/disk at 37 degC for 24 hr. Conditions: MTCC 2656, 24 h, read-out: IZ.
In assay [16] the test system is Klebsiella aerogenes. Put plainly: Antibacterial activity against Enterobacter aerogenes MTCC 39 assessed as inhibition zones at 300 ug/disk at 37 degC for 24 hr. As to conditions: MTCC 39, 24 h, read-out: IZ.
The test system of assay [17] is Pseudomonas aeruginosa. The assay can be described thus: Antibacterial activity against Pseudomonas aeruginosa MTCC 741 assessed as inhibition zones at 300 ug/disk at 37 degC for 24 hr. Conditions: MTCC 741, 24 h, read-out: IZ.
The subject of assay [18] is Staphylococcus aureus. Put plainly: Antibacterial activity against Staphylococcus aureus MTCC 96 assessed as inhibition zones at 300 ug/disc at 37 degC for 24 hr. As to conditions: MTCC 96, 24 h, read-out: IZ.
In assay [19] the test system is Lysinibacillus sphaericus. Put plainly: Antibacterial activity against Lysinibacillus sphaericus MTCC 11 assessed as inhibition zones at 300 ug/disk at 37 degC for 24 hr. Conditions: MTCC 11, 24 h, read-out: IZ.
For assay [20], the system named is Bacillus subtilis. The assay can be described thus: Antibacterial activity against Bacillus subtilis MTCC 441 assessed as inhibition zones at 300 ug/disk at 37 degC for 24 hr. As to conditions: MTCC 441, 24 h, read-out: IZ.
For a further assay, the system named is Caenorhabditis elegans. The assay can be described thus: Nematicidal activity against Caenorhabditis elegans assessed as immobility. Conditions: read-out: LD50 (the source's name).
For assay [21], the system named is Ditylenchus myceliophagus. The assay can be described thus: Nematicidal activity against Ditylenchus myceliophagus assessed as immobility. Conditions: read-out: LD50 (the source's name).

For `COc1ccc(N2N=C3C(SC(c4cc(Cc5ccc(OC)c(C6SC7C(=NN(c8ccc(OC)cc8)C7c7ccc(F)cc7)N6c6ccc(C)cc6)c5)ccc4OC)N3c3ccc(C)cc3)C2c2ccc(F)cc2)cc1` (stereo unspecified), the MBC turned out to be 25 µg/mL (≈ 23.5 µM) in [1]; 12.5 µg/mL (≈ 11.8 µM) in the assay on Trichophyton rubrum [2]; 50 µg/mL (≈ 47 µM) with Aspergillus fumigatus [3]; 25 µg/mL (≈ 23.5 µM) in the assay with Candida albicans [4]; 12.5 µg/mL (≈ 11.8 µM) in [9]; 25 µg/mL (≈ 23.5 µM) in the assay with Klebsiella aerogenes [10]. Besides, the MBC in the assay with Pseudomonas aeruginosa [11] was determined as 25 µg/mL (≈ 23.5 µM); in the assay with Staphylococcus aureus [12], 25 µg/mL (≈ 23.5 µM); in assay [13], 50 µg/mL (≈ 47 µM); in the assay on Bacillus subtilis [14], 25 µg/mL (≈ 23.5 µM). Also, the MIC (as a rule, the lowest concentration found to suppress growth) in assay [1] came to 12.5 µg/mL (≈ 11.8 µM); with Trichophyton rubrum [2], 12.5 µg/mL (≈ 11.8 µM); with Aspergillus fumigatus [3], 25 µg/mL (≈ 23.5 µM); in the assay on Candida albicans [4], 25 µg/mL (≈ 23.5 µM); in assay [9] it was 6.25 µg/mL (≈ 5.88 µM); in the assay on Klebsiella aerogenes [10], 25 µg/mL (≈ 23.5 µM). Moreover, the MIC with Pseudomonas aeruginosa [11] was 12.5 µg/mL (≈ 11.8 µM); with Staphylococcus aureus [12], 25 µg/mL (≈ 23.5 µM); in [13], 50 µg/mL (≈ 47 µM); in the assay with Bacillus subtilis [14], 25 µg/mL (≈ 23.5 µM). For the same molecule, the zone of inhibition at 300 µg/disc in assay [5] (IFO 40996, 48 h, read-out: IZ) turned out to be 12 mm; in the assay on Trichophyton rubrum [6], 13 mm; with Aspergillus fumigatus [7] (HIC 6094, 48 h, read-out: IZ) it was 15 mm; in the assay with Candida albicans [8] (ATCC 10231, 48 h, read-out: IZ), 9 mm; in assay [15], 17 mm; in the assay on Klebsiella aerogenes [16] it was 20 mm. Besides, the zone of inhibition at 300 µg/disc is 18 mm in the assay on Pseudomonas aeruginosa [17], 26 mm in the assay on Staphylococcus aureus [18], 15 mm in assay [19] and 15 mm with Bacillus subtilis [20]. Also, the LC50 with Caenorhabditis elegans stood at 870 µg/mL (≈ 818 µM); in [21] it was 950 µg/mL (≈ 893 µM).

Take `COc1ccc(Cc2ccc(OC)c(C3SC4C(=NN(C(C)C)C4c4ccc(F)cc4)N3c3ccc([N+](=O)[O-])cc3)c2)cc1C1SC2C(=NN(C(C)C)C2c2ccc(F)cc2)N1c1ccc([N+](=O)[O-])cc1` (stereo unspecified): the MBC in assay [1] stood at 25 µg/mL (≈ 25.1 µM); with Trichophyton rubrum [2], 25 µg/mL (≈ 25.1 µM); with Aspergillus fumigatus [3], 50 µg/mL (≈ 50.1 µM); in the assay with Candida albicans [4], 25 µg/mL (≈ 25.1 µM); in [9], 50 µg/mL (≈ 50.1 µM); in the assay on Klebsiella aerogenes [10], 25 µg/mL (≈ 25.1 µM). For the same molecule, the MBC stood at 25 µg/mL (≈ 25.1 µM) in the assay on Pseudomonas aeruginosa [11], 50 µg/mL (≈ 50.1 µM) in the assay on Staphylococcus aureus [12], 50 µg/mL (≈ 50.1 µM) in assay [13] and 25 µg/mL (≈ 25.1 µM) in the assay on Bacillus subtilis [14]. The MIC in assay [1] is 12.5 µg/mL (≈ 12.5 µM); in the assay on Trichophyton rubrum [2] it was 12.5 µg/mL (≈ 12.5 µM); in the assay with Aspergillus fumigatus [3], 25 µg/mL (≈ 25.1 µM); in the assay with Candida albicans [4], 25 µg/mL (≈ 25.1 µM); in assay [9], 25 µg/mL (≈ 25.1 µM); in the assay on Klebsiella aerogenes [10], 12.5 µg/mL (≈ 12.5 µM). The MIC was found to be 25 µg/mL (≈ 25.1 µM) in the assay on Pseudomonas aeruginosa [11], 25 µg/mL (≈ 25.1 µM) with Staphylococcus aureus [12], 50 µg/mL (≈ 50.1 µM) in [13] and 25 µg/mL (≈ 25.1 µM) in the assay with Bacillus subtilis [14]. In addition, the “inhibition zone (IZ)” value (in assay [5]; in the assay on Aspergillus fumigatus [7]; in the assay with Candida albicans [8]) was “inactive” each time. Also, the zone of inhibition at 300 µg/disc was found to be 9 mm in the assay on Trichophyton rubrum [6]; 15 mm in assay [15]; 17 mm in the assay on Klebsiella aerogenes [16]; 10 mm in the assay with Pseudomonas aeruginosa [17]; 23 mm with Staphylococcus aureus [18]; 13 mm in assay [19]. Moreover, the zone of inhibition at 300 µg/disc in the assay with Bacillus subtilis [20] amounted to 18 mm. The LC50 in the assay with Caenorhabditis elegans amounted to 600 µg/mL (≈ 602 µM); in [21], 510 µg/mL (≈ 511 µM).

For `CNC(=O)O/N=C(\SC)C(=O)N(C)C` [OXAMYL], the LC50 in the assay on Caenorhabditis elegans worked out at 180 µg/mL (≈ 821 µM); in [21], 150 µg/mL (≈ 684 µM).
